Test system: 786-0 complex spheroids with HUVEC/MSC, growth % test/control
Assay: Anticancer human tumor 786-0 cell line growth inhibition [AhR];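 also: compound exposure lasted seven days before the read-out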
Conditions: for viability, T/C: stronger effect = lower value
Procedure, shortened: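 Spheroids combined tumor cells with HUVEC endothelial cells and human MSCs as stroma. AhR antagonists were paired with standard or investigational drugs, each dosed in half-log steps down from near clinical Cmax, or from 10 microM where Cmax was unknown.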

[1] = curve of first compound, second compound 0.1 µM
[2] = curve of first compound, second compound 0.316 µM
[3] = curve of first compound, second compound 1 µM
[4] = curve of first compound, second compound 3.16 µM
[5] = curve of first compound, second compound 10 µM
[6] = second compound 0.1 µM, first compound 0.0316 µM
[7] = second compound 0.1 µM, first compound 0.1 µM
[8] = second compound 0.1 µM, first compound 0.316 µM
[9] = second compound 0.1 µM, first compound 1 µM
[10] = second compound 0.1 µM, first compound 3.16 µM
[11] = second compound 0.1 µM, first compound 10 µM
[12] = second compound 0.316 µM, first compound 0.0316 µM
[13] = second compound 0.316 µM, first compound 0.1 µM
[14] = second compound 0.316 µM, first compound 0.316 µM
[15] = second compound 0.316 µM, first compound 1 µM
[16] = second compound 0.316 µM, first compound 3.16 µM
[17] = second compound 0.316 µM, first compound 10 µM
[18] = second compound 1 µM, first compound 0.0316 µM
[19] = second compound 1 µM, first compound 0.1 µM
[20] = second compound 1 µM, first compound 0.316 µM
[21] = second compound 1 µM, first compound 1 µM
[22] = second compound 1 µM, first compound 3.16 µM
[23] = second compound 1 µM, first compound 10 µM
[24] = second compound 3.16 µM, first compound 0.0316 µM
[25] = second compound 3.16 µM, first compound 0.1 µM
[26] = second compound 3.16 µM, first compound 0.316 µM
[27] = second compound 3.16 µM, first compound 1 µM
[28] = second compound 3.16 µM, first compound 3.16 µM
[29] = second compound 3.16 µM, first compound 10 µM
[30] = second compound 10 µM, first compound 0.0316 µM
[31] = second compound 10 µM, first compound 0.1 µM
[32] = second compound 10 µM, first compound 0.316 µM
[33] = second compound 10 µM, first compound 1 µM
[34] = second compound 10 µM, first compound 3.16 µM
[35] = second compound 10 µM, first compound 10 µM

| SMILES | IC50 [1] [nM] | IC50 [2] [nM] | IC50 [3] [nM] | IC50 [4] [nM] | IC50 [5] [nM] | viability, T/C [6] [%] | viability, T/C [7] [%] | viability, T/C [8] [%] | viability, T/C [9] [%] | viability, T/C [10] [%] | viability, T/C [11] [%] | viability, T/C [12] [%] | viability, T/C [13] [%] | viability, T/C [14] [%] | viability, T/C [15] [%] | viability, T/C [16] [%] | viability, T/C [17] [%] | viability, T/C [18] [%] | viability, T/C [19] [%] | viability, T/C [20] [%] | also measured |
| --- | --- | --- | --- | --- | --- | --- | --- | --- | --- | --- | --- | --- | --- | --- | --- | --- | --- | --- | --- | --- | --- |
| CC1COCCN1c1cc(C2(S(C)(=N)=O)CC2)nc(-c2ccnc3[nH]ccc23)n1 (configuration not stated) + Cc1ccccc1N=Nc1ccc(NC(=O)c2ccnn2C)c(C)c1 | 6080 | 5930 | 6520 | 6440 | 5280 | 96.9 | 103 | 97.7 | 101 | 79.6 | 27.6 | 92 | 97.6 | 102 | 106 | 72.7 | 31.1 | 98 | 96.8 | 103 | viability, T/C [21]: 93.2%; viability, T/C [22]: 79.5%; viability, T/C [23]: 32.8%; viability, T/C [24]: 99.9%; viability, T/C [25]: 105%; viability, T/C [26]: 91.5%; viability, T/C [27]: 89.2%; viability, T/C [28]: 70.3%; viability, T/C [29]: 37.1%; viability, T/C [30]: 97.7%; viability, T/C [31]: 97.2%; viability, T/C [32]: 102%; viability, T/C [33]: 88.5%; viability, T/C [34]: 62.5%; viability, T/C [35]: 34.8% |
| COc1ccc([C@@H](O)c2cc(-c3ncnc4cc(N5CCOCC5)ccc34)c(F)cc2Cl)nn1 + CC(CO)NC(=O)c1cc(-c2ccc(Cl)cc2)nn(-c2cnn(C)c2)c1=O | > 10000 | > 10000 | > 10000 | > 10000 | > 10000 | 99.5 | 109 | 111 | 115 | 117 | 85.2 | 102 | 107 | 118 | 106 | 108 | 91.2 | 110 | 114 | 110 | viability, T/C [21]: 113%; viability, T/C [22]: 114%; viability, T/C [23]: 91.6%; viability, T/C [24]: 102%; viability, T/C [25]: 112%; viability, T/C [26]: 114%; viability, T/C [27]: 111%; viability, T/C [28]: 107%; viability, T/C [29]: 83.2%; viability, T/C [30]: 117%; viability, T/C [31]: 122%; viability, T/C [32]: 115%; viability, T/C [33]: 115%; viability, T/C [34]: 100%; viability, T/C [35]: 78% |
| CC(CO)NC(=O)c1cc(-c2ccc(Cl)cc2)nn(-c2cnn(C)c2)c1=O (configuration not stated) |  |  |  |  |  |  |  |  |  |  |  |  |  |  |  |  |  |  |  |  | viability, T/C (compound 0.1 µM): 100% [middle of 20 runs]; IC50 (compound alone, run of 08/08/2022): > 10000 nM |
| COc1cccc2c1C(=O)c1c(O)c3c(c(O)c1C2=O)CC(O)(C(=O)CO)CC3OC1CC(N)C(O)C(C)O1 (configuration not stated) + Cc1ccccc1N=Nc1ccc(NC(=O)c2ccnn2C)c(C)c1 | 126 | 122 | 132 | 119 | 76.5 | 73.8 | 56.6 | 24.7 | 9.36 | 1.43 | 1.74 | 69.3 | 55.7 | 24.7 | 10.1 | 2.44 | 3.3 | 77.4 | 57.4 | 26.7 | viability, T/C [21]: 9.75%; viability, T/C [22]: 1.55%; viability, T/C [23]: 1.78%; viability, T/C [24]: 66.6%; viability, T/C [25]: 55.2%; viability, T/C [26]: 24.5%; viability, T/C [27]: 9.36%; viability, T/C [28]: 1.41%; viability, T/C [29]: 1.09%; viability, T/C [30]: 57.6%; viability, T/C [31]: 48.8%; viability, T/C [32]: 22.4%; viability, T/C [33]: 9.51%; viability, T/C [34]: 1.98%; viability, T/C [35]: 1.15% |
| COc1cc(C2c3cc4c(cc3C(OC3OC5COC(C)OC5C(O)C3O)C3COC(=O)C23)OCO4)cc(OC)c1O (configuration not stated) + Cc1cncc(-c2nc(NCCc3c[nH]c4ccccc34)c3ncn(C(C)C)c3n2)c1 | 1150 | 1290 | 1320 | 444 | < 31.6 | 114 | 127 | 87 | 49.9 | 35.5 | 9.86 | 128 | 121 | 86.8 | 52.9 | 33.4 | 7.71 | 107 | 117 | 85.2 | viability, T/C [21]: 53.3%; viability, T/C [22]: 32.3%; viability, T/C [23]: 4.59%; viability, T/C [24]: 81.3%; viability, T/C [25]: 79.1%; viability, T/C [26]: 56.2%; viability, T/C [27]: 30.5%; viability, T/C [28]: 15.8%; viability, T/C [29]: 2.3%; viability, T/C [30]: 6.55%; viability, T/C [31]: 4.82%; viability, T/C [32]: 1.24%; viability, T/C [33]: 0.35%; viability, T/C [34]: 0.49%; viability, T/C [35]: 0.43% |
